Read-outs that look alike come from different tables or passages of the source.
Target: muscarinic M3 receptor (Homo sapiens (Human), UniProt P20309)
Type: binding

Structure (SMILES) | ability to inhibit [3H]QNB binding at muscarinic sites | ability to inhibit [3H]QNB binding at muscarinic sites (human clonal line TE671/RD)
O=C(Nc1ccccc1)OC1C2CCN(CC2)C1Cc1cccnc1 (centres unmarked) [Compound 2, 2-((3-pyridinyl)methyl)-1-azabicyclo[2.2.2]oct-3-yl N-phenylcarbamate] | None of the compounds was able to inhibit [^3H]QNB binding | –
COc1ccc(NC(=O)OC2C3CCN(CC3)C2Cc2cccnc2)cc1 (centres unmarked) [Compound 4, 2-((3-pyridinyl)methyl)-1-azabicyclo[2.2.2]oct-3-yl N-(4-methoxyphenyl)carbamate] | None of the compounds was able to inhibit [^3H]QNB binding | –
O=C(NC1C2CCN(CC2)C1Cc1cccnc1)c1cc2ccccc2o1 (centres unmarked) [Compound 9, N-(2-((3-pyridinyl)methyl)-1-azabicyclo[2.2.2]oct-3-yl)benzofuran-2-carboxamide] | – | None of the compounds was able to inhibit [^3H]QNB binding
O=C(NC1C2CCN(CC2)C1Cc1cccnc1)c1ccc(Sc2ccccc2)cc1 (centres unmarked) [Compound 11] | – | None of the compounds was able to inhibit [^3H]QNB binding
O=C(Nc1ccc(Br)cc1)OC1C2CCN(CC2)C1Cc1cccnc1 (centres unmarked) [Compound 1, 2-((3-pyridinyl)methyl)-1-azabicyclo[2.2.2]oct-3-yl N-(4-bromophenyl)carbamate] | None of the compounds was able to inhibit [^3H]QNB binding | –

Reference: patent publication US8541447B2 (priority 2003, dated 2013)
